The record followed here is USRE47689E1, “Compounds for treating spinal muscular atrophy” (PTC Therapeutics, Inc., priority 2011, dated 2019).

Series [1] relates to SMN2 minigene (full length SMN2 minigene mRNA containing SMN2 exon 7). The experiment in a line: SMN2 minigene mRNA splicing RT-qPCR assay in cultured cells. To be noted: Homo sapiens, HEK293-H; HEK293H cells stably transfected with SMN2-A minigene; 24 hours; 7-point concentration curve; 1.5-fold relative to vehicle-treated cells; read-out: EC1.5x for production of full length SMN2 mRNA. The class given is cell-based, human. Put shortly:
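HEK293H cells stably carrying the SMN2-A minigene treated 24 h at 37° C with compound (DMSO, 200× stock), then lysed. Multiplex RT-qPCR (SMN primers 0.4 μM final; 40 cycles) measures full-length exon 7-containing minigene mRNA, normalized to GAPDH and to vehicle; EC1.5x derived and binned by stars.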

Series [2] relates to Smn protein. In words: Smn protein assay in cultured cells (SMN HTRF). In kind it is cell-based, human. To be noted: 48 hours; for maximum fold (Fold) increase of Smn protein: SMA patient fibroblast cells, 7-point concentration data, fold increase relative to vehicle control (SMN HTRF); for EC1.5x (concentration giving 1.5-fold Smn protein increase): SMA Type 1 patient fibroblast cells (GM03813), 7-point concentration curve, SMN HTRF, concentration producing 1.5 times Smn protein vs DMSO vehicle control, read-out: EC1.5x for Smn protein expression. Put shortly:
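Lysates in RIPA with protease inhibitors are incubated overnight at room temperature with HTRF anti-SMN antibodies. EC1.5x is derived from fold increase in ΔF over vehicle.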

Bounds are passed on as bounds.

In turn, `CCCN1CCN(c2ccc3cc(-c4cn5cccc(C)c5n4)c(=O)oc3c2)CC1` [Compound 101, 3-(8-methylimidazo[1,2-a]pyridin-2-yl)-7-(4-propylpiperazin-1-yl)-2H-chromen-2-one] returned a melting point of 249 to 251 °C. Moreover, the EC (1.5-fold) in series [1] lay within 1 to 3 µM. Moreover, in series [2], the “maximum fold (Fold) increase of Smn protein” value (shortened to “maximum fold (Fold) increase”) was “** (fold increase between >1.2 and ≤1.35)”.

Consider `Cc1nc(Cl)cn2cc(-c3cc4ccc(N5CC[C@H](N(C)C)C5)cc4oc3=O)nc12` [Compound 765, 3-(6-chloro-8-methylimidazo[1,2-a]pyrazin-2-yl)-7-[(3S)-3-(dimethylamino)pyrrolidin-1-yl]-2H-chromen-2-one], for which the melting point was 210 to 215 °C. Moreover, the EC (1.5-fold) in series [1] lay in the range of 0.3 to 1 µM. In series [2], the “maximum fold (Fold) increase” value is recorded as “* (maximum fold increase of ≤1.2)”.

Compound `Cc1csc(-c2cc3ccc(N4CCNC(C)(C)C4)cc3oc2=O)n1` [Compound 301, 7-(3,3-dimethylpiperazin-1-yl)-3-(4-methyl-1,3-thiazol-2-yl)-2H-chromen-2-one] had a melting point of 204 to 209 °C. Besides, the EC (1.5-fold) in series [1] lay within 1 to 3 µM. Also, the “maximum fold (Fold) increase” value in series [2] is “* (maximum fold increase of ≤1.2)”.

On to `C[C@@H]1CN(c2ccc3cc(-c4cn5cccc(Cl)c5n4)c(=O)oc3c2)CCN1C` [Compound 296, 3-(8-chloroimidazo[1,2-a]pyridin-2-yl)-7-[(3R)-3,4-dimethylpiperazin-1-yl]-2H-chromen-2-one], for which the melting point lay within 199 to 202 °C. Further, in series [1], the EC (1.5-fold) is 0.1 to 0.3 µM. Besides, in series [2], the “maximum fold (Fold) increase” value was “*** (fold increase between >1.35 and ≤1.5)”.

With `CN1CCCN(c2cc(F)c3cc(-c4cn5ccsc5n4)c(=O)oc3c2)CC1` [Compound 373, 5-fluoro-3-(imidazo[2,1-b][1,3]thiazol-6-yl)-7-(4-methyl-1,4-diazepan-1-yl)-2H-chromen-2-one], the melting point fell in the range of 205 to 207 °C. Besides, the EC (1.5-fold) in series [1] was less than 0.1 µM. In series [2], the EC1.5x (concentration giving 1.5-fold Smn protein increase) lay within 300 to 1000 nM; the “maximum fold (Fold) increase” value is “**** (fold increase between >1.5 and ≤1.65)”.

`Cc1cc(F)c2nc(-c3cc4ccc(N5CCNCC5)cc4oc3=O)cn2c1` [Compound 356, 3-(8-fluoro-6-methylimidazo[1,2-a]pyridin-2-yl)-7-(piperazin-1-yl)-2H-chromen-2-one] displayed a melting point of 276 to 286 °C. Moreover, the EC (1.5-fold) in series [1] is less than 0.1 µM. In addition, the “maximum fold (Fold) increase” value in series [2] was “** (fold increase between >1.2 and ≤1.35)”.

The compound `Cc1cn2cc(-c3cc4ccc(CCCNC(C)C)cc4oc3=O)nc2c(C)n1` [Compound 858, 3-(6,8-dimethylimidazo[1,2-a]pyrazin-2-yl)-7-[3-(propan-2-ylamino)propyl]-2H-chromen-2-one] displayed a melting point of 184 to 187 °C. In addition, in series [1], the EC (1.5-fold) was less than 0.1 µM. Further, in series [2], the EC1.5x (concentration giving 1.5-fold Smn protein increase) was less than 300 nM; the “maximum fold (Fold) increase” value is “**** (fold increase between >1.5 and ≤1.65)”.

`Cc1cn2cc(-c3cc4ccc(N5CCN(C6COC6)CC5)cc4oc3=O)nc2c(C)n1` [Compound 823, 3-(6,8-dimethylimidazo[1,2-a]pyrazin-2-yl)-7-[4-(oxetan-3-yl)piperazin-1-yl]-2H-chromen-2-one] displayed a melting point of 230 to 235 °C. In series [1], the EC (1.5-fold) fell in the range of 0.3 to 1 µM. Moreover, in series [2], the EC1.5x (concentration giving 1.5-fold Smn protein increase) is 1000 to 3000 nM; the “maximum fold (Fold) increase” value is “**** (fold increase between >1.5 and ≤1.65)”.

In the case of `Cc1nccn2cc(-c3cc4ccc(N5CCNCC5)cc4oc3=O)cc12` [Compound 555, 3-(1-methylpyrrolo[1,2-a]pyrazin-7-yl)-7-(piperazin-1-yl)-2H-chromen-2-one], the melting point lay within 264 to 266 °C. Moreover, the EC (1.5-fold) in series [1] is 0.1 to 0.3 µM. For the same compound, in series [2], the EC1.5x (concentration giving 1.5-fold Smn protein increase) is less than 300 nM; the “maximum fold (Fold) increase” value was “**** (fold increase between >1.5 and ≤1.65)”.

Take `Cc1cn2cc(-c3cc4ccc(CCCNC(CO)CO)cc4oc3=O)nc2c(C)n1` [Compound 882, 7-{3-[(1,3-dihydroxypropan-2-yl)amino]propyl}-3-(6,8-dimethylimidazo[1,2-a]pyrazin-2-yl)-2H-chromen-2-one]: the melting point lay in the range of 195 to 199 °C. Moreover, the EC (1.5-fold) in series [1] was less than 0.1 µM. Besides, in series [2], the EC1.5x (concentration giving 1.5-fold Smn protein increase) was less than 300 nM; the “maximum fold (Fold) increase” value is “**** (fold increase between >1.5 and ≤1.65)”.

Compound `Cc1ccn2cc(-c3cc4ccc(N5CCNCC5)cc4oc3=O)nc2c1` [Compound 131, 3-(7-methylimidazo[1,2-a]pyridin-2-yl)-7-(piperazin-1-yl)-2H-chromen-2-one] had a melting point of 260 to 270 °C. Besides, in series [1], the EC (1.5-fold) was in the range of 0.3 to 1 µM. Further, in series [2], the “maximum fold (Fold) increase” value was “*** (fold increase between >1.35 and ≤1.5)”.

The compound `Cc1cn2cc(-c3cc4ccc(OCCNC(C)(C)CO)cc4oc3=O)nc2c(C)n1` [Compound 955, 3-(6,8-dimethylimidazo[1,2-a]pyrazin-2-yl)-7-{2-[(1-hydroxy-2-methylpropan-2-yl)amino]ethoxy}-2H-chromen-2-one] registered a melting point of 187 to 191 °C. For the same compound, the EC (1.5-fold) in series [1] lay within 0.1 to 0.3 µM. For the same compound, the “maximum fold (Fold) increase” value in series [2] was “*** (fold increase between >1.35 and ≤1.5)”.

Compound `Cc1ccc2nc(-c3cc4ccc(N5CCNC(C)(C)C5)cc4oc3=O)cn2c1` [Compound 222, 7-(3,3-dimethylpiperazin-1-yl)-3-(6-methylimidazo[1,2-a]pyridin-2-yl)-2H-chromen-2-one] had a melting point of 177 to 180 °C. Besides, in series [1], the EC (1.5-fold) lay within 1 to 3 µM. Also, the “maximum fold (Fold) increase” value in series [2] is recorded as “* (maximum fold increase of ≤1.2)”.

In turn, `Cc1cn2cc(-c3cc4ccc(CCCN(C)C)cc4oc3=O)nc2c(C)n1` [Compound 857, 7-[3-(dimethylamino)propyl]-3-(6,8-dimethylimidazo[1,2-a]pyrazin-2-yl)-2H-chromen-2-one] registered a melting point of 194 to 196 °C. In addition, the EC (1.5-fold) in series [1] was less than 0.1 µM. Also, in series [2], the EC1.5x (concentration giving 1.5-fold Smn protein increase) was less than 300 nM and the “maximum fold (Fold) increase” value is reported as “***** (fold increase >1.65)”.

In turn, `C[C@@H]1CN(c2cc(F)c3cc(-c4nc5ccccc5[nH]4)c(=O)oc3c2)C[C@H](C)N1` [Compound 371, 3-(1H-benzimidazol-2-yl)-7-[(3R,5S)-3,5-dimethylpiperazin-1-yl]-5-fluoro-2H-chromen-2-one] returned a melting point of 288 to 294 °C. Further, the EC (1.5-fold) in series [1] lay in the range of 0.3 to 1 µM. For the same compound, the “maximum fold (Fold) increase” value in series [2] is “* (maximum fold increase of ≤1.2)”.

As for `Cc1cc(Cl)c2nc(-c3cc4ccc(N5C[C@@H](C)N[C@@H](C)C5)cc4oc3=O)cn2c1` [Compound 342, 3-(8-chloro-6-methylimidazo[1,2-a]pyridin-2-yl)-7-[(3R,5S)-3,5-dimethylpiperazin-1-yl]-2H-chromen-2-one], the melting point lay within 258 to 263 °C. Besides, the EC (1.5-fold) in series [1] is 0.1 to 0.3 µM. Also, in series [2], the “maximum fold (Fold) increase” value was “** (fold increase between >1.2 and ≤1.35)”.

Compound `Cc1cc(F)c2nc(-c3cc4ccc(N5CCN6CCC[C@H]6C5)cc4oc3=O)cn2c1` [Compound 560, 3-(8-fluoro-6-methylimidazo[1,2-a]pyridin-2-yl)-7-[(8aS)-hexahydropyrrolo[1,2-a]pyrazin-2(1H)-yl]-2H-chromen-2-one] displayed a melting point of 296 to 306 °C. In addition, in series [1], the EC (1.5-fold) is 0.1 to 0.3 µM. In series [2], the EC1.5x (concentration giving 1.5-fold Smn protein increase) was less than 300 nM; the “maximum fold (Fold) increase” value was “**** (fold increase between >1.5 and ≤1.65)”.

Compound `COCCNCCCc1ccc2cc(-c3cn4cc(C)nc(C)c4n3)c(=O)oc2c1` [Compound 931, 3-(6,8-dimethylimidazo[1,2-a]pyrazin-2-yl)-7-{3-[(2-methoxyethyl)amino]propyl}-2H-chromen-2-one] registered a melting point of 147 to 150 °C. Also, the EC (1.5-fold) in series [1] is less than 0.1 µM. In addition, in series [2], the EC1.5x (concentration giving 1.5-fold Smn protein increase) lay in the range of 300 to 1000 nM; the “maximum fold (Fold) increase” value was “**** (fold increase between >1.5 and ≤1.65)”.

For `CC1(C)CN(c2ccc3cc(-c4cn5cccc(F)c5n4)c(=O)oc3c2)CCN1` [Compound 507, 7-(3,3-dimethylpiperazin-1-yl)-3-(8-fluoroimidazo[1,2-a]pyridin-2-yl)-2H-chromen-2-one], the melting point is 180 to 182 °C. Also, the EC (1.5-fold) in series [1] is 0.1 to 0.3 µM. In addition, in series [2], the EC1.5x (concentration giving 1.5-fold Smn protein increase) is less than 300 nM; the “maximum fold (Fold) increase” value was “**** (fold increase between >1.5 and ≤1.65)”.

In turn, `Cc1cn2cc(-c3cc4ccc(C5CCN(C)CC5)cc4oc3=O)nc2cn1` [Compound 841, 3-(6-methylimidazo[1,2-a]pyrazin-2-yl)-7-(1-methylpiperidin-4-yl)-2H-chromen-2-one] had a melting point of 266 to 272 °C. Further, the EC (1.5-fold) in series [1] is less than 0.1 µM. Also, in series [2], the EC1.5x (concentration giving 1.5-fold Smn protein increase) is less than 300 nM and the “maximum fold (Fold) increase” value is recorded as “***** (fold increase >1.65)”.

`Cc1cn2cc(-c3cc4ccc(N5CCCN(C)CC5)cc4oc3=O)cc2cn1` [Compound 589, 7-(4-methyl-1,4-diazepan-1-yl)-3-(3-methylpyrrolo[1,2-a]pyrazin-7-yl)-2H-chromen-2-one] gave a melting point of 148 to 150 °C. The EC (1.5-fold) in series [1] is less than 0.1 µM. In series [2], the EC1.5x (concentration giving 1.5-fold Smn protein increase) is less than 300 nM and the “maximum fold (Fold) increase” value is listed as “***** (fold increase >1.65)”.
